Experimental findings from US20060099712A1, “Correlation of anti-cancer activity of dyes with redox potentials” (Eastman Kodak Company, priority 2004, published 2006) are described below.

Experiment [1] concerns CX-1 Human Colon Carcinoma. Put plainly: Clonogenic dye screening assay, CX-1 cells (IC50). The class given is cell-based. On the set-up: CX: unit not given here. As to conditions: for IC50: Homo sapiens; for CV/CX: selectivity ratio of IC50 values; for CV/CX (selectivity, kill ratio): ratio of IC50 in normal CV-1 line to IC50 in carcinoma CX-1 line; for Selectivity: IC50 CV-1 / IC50 cell line 2 (CX-1); for CX (IC50 in the CX-1 cell line): 3 hrs treatment, unit from method b117-118. The method in brief:
(§1)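 Cells seeded 16-30 h ahead (2000 CX-1 or 1000 CV-1 per well), exposed to serially diluted dyes for 3 h at 37 °C, rinsed three times, then grown into colonies. Eight-point curves spanned 0.32-0.0015 μg/mL (CX-1) and 3.2-0.025 μg/mL (CV-1). IC50 is the concentration killing 50% of cells.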

Experiment [2] relates to CV-1 Normal Monkey Kidney Epithelial. Put plainly: Clonogenic dye screening assay, CV-1 cells (IC50). In kind it is cell-based, African green monkey. Conditions: for IC50: Primates; for IC50 (concentration at which 50% of the cells of the culture are killed): cell line 1, CV-1 normal control. The method in brief:
as §1

The mark [3] stands for this setting: CX-1, Table XIX, CX-1 cells, read-out: CX.
Setting [4] is: CX-1, cell line 2, CX-1, unit from method, read-out: IC50 (concentration at which 50% of the cells of the culture are killed).
The mark [5] stands for this setting: CV-1, Table XIX, CV-1 cells, read-out: CV.
[6] abbreviates: CV-1, cell line 1, CV-1 normal control, unit from method, read-out: IC50 (concentration at which 50% of the cells of the culture are killed).

In brackets after ≈: the same amount, converted by molar mass. Several values for one entry are separate records, joined by “and”; a condition that tells them apart may be missing. Equal entries are not always repeated. Where two headings read alike, the source gives them in different places. Some results are limits rather than exact numbers.

`CCN1/C(=C\C=C\C2=[N+](CC)c3ccccc3C2(C)C)C(C)(C)c2ccccc21` [Dye D-103]: the IC50 was determined as 0.01 µg/mL in experiment [1] (CX-1, read-out: CX); 0.01 µg/mL in experiment [1] (CX-1, read-out: CX (IC50 in the CX-1 cell line)); 5 µg/mL in experiment [2] (CV-1, read-out: CV); 5 µg/mL in experiment [2] (CV-1, read-out: CV (IC50 in the CV-1 cell line)). For the same compound, the CV/CX is on record as 500.000 in experiment [1] (Table XIX) and 500.0 in experiment [1] (Table XV). The “CV/CX (selectivity, kill ratio)” value in experiment [1] was found to be 500.
As to `CCN1C(=CC=Cc2sc3cc4ccccc4nc3[n+]2CC)Sc2cc3ccccc3nc21` [Dye D-150], the IC50 in experiment [1] (CX-1, 3 hrs treatment, colonies after 7-10 days, unit from method, read-out: CX (IC50 in the CX-1 cell line)) turned out to be 0.03 µg/mL; in experiment [1] (setting [3]) it was 0.03 µg/mL; in experiment [1] (setting [4]), 0.03 µg/mL; in experiment [2] (CV-1, 3 hrs treatment, colonies after 7-10 days, unit from method, read-out: CV (IC50 in the CV-1 cell line)), 3 µg/mL; in experiment [2] (setting [5]) it was 3 µg/mL; in experiment [2] (setting [6]), 3 µg/mL. In experiment [1], this compound returned a Selectivity of 100. In addition, the CV/CX in experiment [1] (Table XIX) stood at 100.000. Also, in experiment [1], the “CV/CX (selectivity, kill ratio)” value is listed as 100.
With `CCN1C(=CC=Cc2sc3cc4ccccc4cc3[n+]2CC)Sc2cc3ccccc3cc21` [AC-2], in experiment [1], the Selectivity was over 60. The “IC50 (concentration at which 50% of the cells of the culture are killed)” value is under 5 ng/mL in experiment [1] (cell line 2, CX-1, unit from method) and 0.30 µg/mL in experiment [2] (unit from method).
Consider `CCN1/C(=C/C=C/c2sc3ccccc3[n+]2CC)Sc2ccccc21.[I-]` [Dye D-101], for which the “CX (IC50 in the CX-1 cell line)” value in experiment [1] (colonies after 7-10 days) is under 5 ng/mL. Besides, in experiment [1], the Selectivity was found to be 100; the “CV/CX (selectivity, kill ratio)” value was 100 and >100.0. The same compound showed a CX in experiment [1] (Table XIX, CX-1 cells) of 0.004. The CV/CX in experiment [1] (Table XIX) is 100.000 and 75.000. For the same compound, the CV/CX in experiment [1] (Table XV) stood at 100.0. The “IC50 (concentration at which 50% of the cells of the culture are killed)” value in experiment [2] (unit from method) is 0.5 µg/mL and 0.50 µg/mL.
In the case of `CCN1/C(=C/C=C/c2sc3cc4ccccc4cc3[n+]2CC)Sc2cc3ccccc3cc21` [Dye D-109], in experiment [1] (colonies after 7-10 days), the “CX (IC50 in the CX-1 cell line)” value is under 5 ng/mL. The values for the IC50 in experiment [1] (setting [3]) and in experiment [2] (setting [5]) were 0.004 µg/mL and 0.3 µg/mL, respectively. In addition, in experiment [1] (Table XIX), the CV/CX is on record as 75.000. In addition, the “CV/CX (selectivity, kill ratio)” value in experiment [1] is 60 and >60.0.
As to `CCN1/C(=C/C=C/c2sc3cc4ccccc4cc3[n+]2CC)Sc2cc3ccccc3cc21` [Dye D-160], in experiment [1] (colonies after 7-10 days), the “CX (IC50 in the CX-1 cell line)” value came to 50 ng/mL. The IC50 in experiment [1] (setting [4]) is under 0.005 µg/mL; in experiment [2] (setting [6]) it was 0.3 µg/mL. For the same compound, the CX in experiment [1] (Table XIX, CX-1 cells) is recorded as 0.004. The CV/CX in experiment [1] (Table XIX) was 75.000. Also, the “CV/CX (selectivity, kill ratio)” value in experiment [1] stood at 100.
With `COc1cccc2c1C(=O)c1c(O)c3c(c(O)c1C2=O)C[C@@](O)(C(=O)CO)C[C@@H]3O[C@H]1C[C@H](N)[C@H](O)[C@H](C)O1` [Adriamycin, reference compound], the IC50 in experiment [1] (setting [4]) was found to be 0.55 µg/mL (≈ 1.01 µM); in experiment [2] (setting [6]), 0.8 µg/mL (≈ 1.47 µM). In experiment [1], this compound came in with a Selectivity of 1.5.
